Experimental findings from BindingDB's records for doi:10.1021/acs.jmedchem.1c00779 (Hong Kong Polytechnic University, 2021) are described below.

Usually EC50 stands for the midpoint of the concentration-response curve.

The nature of data set [1]: Inhibition of BCRP (unknown origin) transfected in HEK293/R2 cells assessed as reversal of topotecan resistance after 5 days by MTS/PMS assay.
Data set [2] is described as follows: Inhibition of BCRP (unknown origin) expressed in MCF7/MX100 cells assessed as reversal of topotecan resistance after 5 days by MTS/PMS assay.
The nature of data set [3]: Inhibition of P-gp (unknown origin) expressed in human LCC6MDR cells assessed as reversal of paclitaxel resistance after 5 days by MTS/PMS assay.
A short description of data set [4]: Inhibition of MRP1 (unknown origin) expressed in human 2008/MRP1 cells assessed as reversal of doxorubicin resistance after 5 days by MTS/PMS assay.
Data set [5] can be described thus: Inhibition of P-gp (unknown origin) expressed in human LCC6MDR cells assessed as reversal of mitoxantrone resistance after 5 days by MTS/PMS assay.
Data set [6] in a line: Inhibition of BCRP (unknown origin) expressed in human HEK293/R2 cells assessed as reversal of mitoxantrone resistance after 5 days by MTS/PMS assay.
A short description of data set [7]: Inhibition of MRP1 (unknown origin) expressed in human 2008/MRP1 cells assessed as reversal of mitoxantrone resistance after 5 days by MTS/PMS assay.

In the case of `C#CCCCOc1ccc(-c2cc(=O)c3ccccc3o2)cc1`, the EC50 in data set [1] was more than 1 µM.

Take `[N-]=[N+]=NCCOCCOCCOc1ccc2c(=O)cc(-c3ccccc3)oc2c1`: the EC50 in data set [1] came out at 0.177 µM.

For the compound `C#CCNc1ccccc1`, the EC50 in data set [1] is more than 1 µM.

For the compound `C#CCCCCOc1ccc(-c2oc3ccccc3c(=O)c2OCc2cccc(C(=O)OC)c2)cc1`, the EC50 in data set [2] is 0.034 µM; in data set [1] it was 0.044 µM; in data set [3], 0.821 µM; in data set [4] it was more than 1 µM.

For `COC(=O)c1cccc(COc2c(-c3ccc(OCCOCCn4cc(CNc5ccccc5)nn4)cc3)oc3ccccc3c2=O)c1`, the EC50 in data set [2] was 0.044 µM; in data set [1], 0.026 µM; in data set [3], more than 1 µM; in data set [4], more than 1 µM.

For the compound `C#CCCN1C(=O)c2ccccc2C1=O`, the EC50 in data set [1] was more than 1 µM.

On to `COC(=O)c1cccc(COc2c(-c3ccc(OCCOCCOCCN=[N+]=[N-])cc3)oc3ccccc3c2=O)c1`, for which the EC50 in data set [2] is 0.017 µM; in data set [3], 0.298 µM; in data set [4], more than 1 µM.

Regarding `[N-]=[N+]=NCCOCCOCCOc1ccc(-c2oc3ccccc3c(=O)c2OCc2ccccc2)cc1`, the EC50 in data set [1] came to 0.052 µM.

For the compound `C#CCN(CC#C)CC#C`, the concentration giving a half-maximal response (EC50) in data set [1] was more than 1 µM.

`C#CCCCCOc1ccc(/C=C/C(=O)c2ccc(F)cc2O)cc1`: the 50% effective concentration (EC50) in data set [1] was more than 1 µM.

As for `C#CCN(C)Cc1ccccc1` [N-benzyl-N-methylprop-2-yn-1-amine], the half-maximal effective concentration (EC50) in data set [1] is more than 1 µM.

`C#CCCCCOc1ccc(/C=C/C(=O)c2cc(C)ccc2O)cc1`: the concentration giving a half-maximal response (EC50) in data set [1] is more than 1 µM.

For the compound `COC(=O)c1cccc(COc2c(-c3ccc(OCCOCCn4cc(CCN5C(=O)c6ccccc6C5=O)nn4)cc3)oc3ccccc3c2=O)c1`, the EC50 in data set [2] was 0.097 µM; in data set [1] it was 0.046 µM; in data set [3] it was more than 1 µM; in data set [4] it was more than 1 µM.

`C#CCCCCOc1ccc(-c2oc3ccccc3c(=O)c2OCc2cccc(OC)c2)cc1`: the EC50 in data set [1] is 0.261 µM.

As to `COC(=O)c1cccc(COc2c(-c3ccc(OCCOCCOCCn4cc(CCN5C(=O)c6ccccc6C5=O)nn4)cc3)oc3ccccc3c2=O)c1`, the EC50 was 0.16 µM in data set [1], more than 1 µM in data set [3] and more than 1 µM in data set [4].

As to `C#CCCCCOc1ccc(/C=C/C(=O)c2ccccc2O)cc1`, in data set [1], the half-maximal effective concentration (EC50) was more than 1 µM.

`C#CCCCCOc1ccc(/C=C/C(=O)c2ccc(C)cc2O)cc1`: the EC50 in data set [1] is more than 1 µM.

As to `[N-]=[N+]=NCCOCCO`, the EC50 in data set [1] was more than 1 µM.

Take `C#CCCCOc1ccc(-c2cc(=O)c3c(OCc4ccccc4)cc(OCOC)cc3o2)cc1`: in data set [1], the concentration giving a half-maximal response (EC50) was determined as 0.201 µM.

Consider `Cc1ccc2oc(-c3ccc(OCCOCCOCCN=[N+]=[N-])cc3)cc(=O)c2c1`, for which, in data set [1], the EC50 came out at 0.75 µM.

Consider `[N-]=[N+]=NCCOCCOCCOc1ccc(-c2cc(=O)c3ccccc3o2)cc1`, for which the concentration for a half-maximal effect (EC50) in data set [1] stood at 0.363 µM.

Regarding `[N-]=[N+]=NCCOc1ccc2c(=O)cc(-c3ccccc3)oc2c1`, in data set [1], the EC50 stood at 0.213 µM.

In the case of `COC(=O)c1cccc(COc2c(-c3ccc(OCCOCCN=[N+]=[N-])cc3)oc3ccccc3c2=O)c1`, the EC50 in data set [2] was 0.05 µM; in data set [3] it was more than 1 µM; in data set [4] it was more than 1 µM.

In the case of `C#CCN(CCOc1ccc2c(=O)cc(-c3ccccc3)oc2c1)Cc1ccccc1`, the 50% effective concentration (EC50) in data set [1] was more than 1 µM.

Consider `C#CCCCOc1ccc(-c2cc(=O)c3cc(F)ccc3o2)cc1`, for which, in data set [1], the EC50 amounted to 0.417 µM.

Turning to `C#CCCCOc1ccc(-c2cc(=O)c3cc(C)ccc3o2)cc1`, the EC50 in data set [1] was more than 1 µM.

On to `COC(=O)c1cccc(COc2c(-c3ccc(OCCCCc4cn(CCOCCO)nn4)cc3)oc3ccccc3c2=O)c1`, for which the concentration giving a half-maximal response (EC50) in data set [2] is 0.027 µM; in data set [1] it was 0.01 µM; in data set [3], 0.606 µM; in data set [4], more than 1 µM.

Turning to `[N-]=[N+]=NCCOCCOc1ccc(-c2oc3ccccc3c(=O)c2OCc2ccccc2)cc1`, in data set [1], the EC50 turned out to be 0.045 µM.

In the case of `[N-]=[N+]=NCCOCCOc1ccc(-c2cc(=O)c3cc(F)ccc3o2)cc1`, the concentration giving a half-maximal response (EC50) in data set [1] is 0.84 µM.

On to `C#CCCCOc1ccc(-c2nc3ccccc3c(=O)[nH]2)cc1`, for which the half-maximal effective concentration (EC50) in data set [1] was more than 1 µM.

With `COC(=O)c1cccc(COc2c(-c3ccc(OCCOCCOCCn4cc(CCCCOc5ccc(C=O)cc5)nn4)cc3)oc3ccccc3c2=O)c1`, the concentration giving a half-maximal response (EC50) is 0.038 µM in data set [2], 0.019 µM in data set [1], more than 1 µM in data set [3] and 0.865 µM in data set [4].

On to `[N-]=[N+]=NCCOCCOc1ccc(-c2cc(=O)c3ccccc3o2)cc1`, for which the half-maximal effective concentration (EC50) in data set [1] is 0.365 µM.

For `C#CCOCCOc1ccc2c(=O)cc(-c3ccccc3)oc2c1`, in data set [1], the 50% effective concentration (EC50) was more than 1 µM.

Consider `C#CCCCCOc1ccc(/C=C/C(=O)c2cc(CC)ccc2O)cc1`, for which, in data set [1], the EC50 is more than 1 µM.

For `C#CCCCCOc1ccc(-c2cc(=O)c3cc(F)ccc3o2)cc1`, the EC50 in data set [1] was determined as 0.24 µM.

As to `[N-]=[N+]=NCCOCCOc1ccc2c(=O)cc(-c3ccccc3)oc2c1`, the concentration for a half-maximal effect (EC50) in data set [1] stood at 0.223 µM.

Consider `[N-]=[N+]=NCCOCCOc1cccc(-c2oc3ccccc3c(=O)c2OCc2ccccc2)c1`, for which the EC50 in data set [1] is 0.169 µM.

On to `C#CCCCOc1ccc(-c2cc(=O)c3ccc(F)cc3o2)cc1`, for which, in data set [1], the concentration giving a half-maximal response (EC50) is 0.325 µM.

`C#CCCCCOc1ccc2c(=O)cc(-c3ccccc3)oc2c1`: the EC50 in data set [1] is more than 1 µM.

With `COC(=O)c1cccc(COc2c(-c3ccc(OCCOCCn4cc(CN(Cc5ccccc5)Cc5ccccc5)nn4)cc3)oc3ccccc3c2=O)c1`, the EC50 was 0.03 µM in data set [2], 0.032 µM in data set [1], more than 1 µM in data set [3] and more than 1 µM in data set [4].

In the case of `C#CCCCCOc1ccc(C=O)cc1`, the EC50 in data set [1] was more than 1 µM.

Consider `C#CCCCOc1ccc2c(=O)cc(-c3ccccc3)oc2c1`, for which the EC50 in data set [1] was more than 1 µM.

Turning to `COC(=O)c1cccc(COc2c(-c3ccc(OCCCCc4cn(Cc5ccccc5)nn4)cc3)oc3ccccc3c2=O)c1`, the 50% effective concentration (EC50) is 0.006 µM in data set [2]; 0.007 µM in data set [1]; 0.67 µM in data set [3]; 0.673 µM in data set [5]; more than 1 µM in data set [4]; 0.013 µM in data set [6]. Moreover, the EC50 in data set [7] turned out to be 0.886 µM.

On to `COC(=O)c1cccc(COc2c(-c3ccc(OCCOCCn4cc(CN(C)Cc5ccccc5)nn4)cc3)oc3ccccc3c2=O)c1`, for which the EC50 in data set [2] was 0.0035 µM; in data set [1], 0.015 µM; in data set [3] it was more than 1 µM; in data set [5], 0.644 µM; in data set [4], more than 1 µM; in data set [6], 0.017 µM. In addition, in data set [7], the EC50 was determined as 0.681 µM.

For `C#CCN(Cc1ccccc1)Cc1ccccc1`, the EC50 in data set [1] is more than 1 µM.

In the case of `COc1cccc(COc2c(-c3ccc(OCCOCCN=[N+]=[N-])cc3)oc3ccccc3c2=O)c1`, the EC50 in data set [1] was 0.076 µM.

As to `COC(=O)c1cccc(COc2c(-c3ccc(OCCOCCOCCn4cc(CN(CCO)Cc5ccccc5)nn4)cc3)oc3ccccc3c2=O)c1`, the half-maximal effective concentration (EC50) in data set [2] is 0.0016 µM; in data set [1], 0.0014 µM; in data set [3] it was 0.309 µM; in data set [5] it was 0.817 µM; in data set [4], more than 1 µM; in data set [6], 0.165 µM. In addition, the concentration giving a half-maximal response (EC50) in data set [7] is 0.592 µM.

Turning to `O=c1cc(-c2ccccc2)oc2cc(OCCNCc3ccccc3)ccc12`, the EC50 in data set [1] is more than 1 µM.

`COC(=O)c1cccc(COc2c(-c3ccc(OCCOCCn4cc(-c5cccc(-c6cn(CCOCCOc7ccc(-c8oc9ccccc9c(=O)c8OCc8cccc(C(=O)OC)c8)cc7)nn6)c5)nn4)cc3)oc3ccccc3c2=O)c1`: the EC50 in data set [1] worked out at 0.0025 µM.

Regarding `COC(=O)c1cccc(COc2c(-c3ccc(OCCOCCOCCn4cc(CN(C)Cc5ccccc5)nn4)cc3)oc3ccccc3c2=O)c1`, the EC50 was 0.028 µM in data set [2], 0.016 µM in data set [1], 0.83 µM in data set [3] and more than 1 µM in data set [4].
